This passage reports GI50 and TGI results from PubChem BioAssay (NCI).

Each structure is given as a SMILES string.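 Cells were grown in 96-well plates and exposed to each compound for 48 hours at five concentrations; endpoints were interpolated linearly between bracketing concentrations, or set to the highest concentration if not reached. GI50 marks 50% less growth. At the TGI there is no net growth.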

Some test systems named below: SK-MEL-5 melanoma; NCI-H23 lung; SF-268 CNS; HL-60(TB) leukemia; HCT-15 colon; UO-31 renal; OVCAR-4 ovarian; KM12 colon; SK-MEL-2 melanoma; BT-549 breast.
Holding throughout (test): NCI anticancer screen, dose series, 48 h

In the case of `O=C(Nc1ccc(-n2cc(-c3ccncc3)c(-c3ccc(O)c(Cl)c3)n2)cc1)c1ccc(Cl)c(Cl)c1`, the GI50 in the assay with SK-MEL-5 melanoma was 1 µM; with NCI-H23 lung, 2.18 µM; with SF-268 CNS, more than 32.5 µM; in the assay with HL-60(TB) leukemia it was 1.39 µM; with HCT-15 colon it was 0.708 µM; in the assay with UO-31 renal, 1.8 µM. In addition, the GI50 with OVCAR-4 ovarian was 2.71 µM; in the assay on KM12 colon, 1.63 µM; in the assay on SK-MEL-2 melanoma it was 0.932 µM. Besides, the TGI with SK-MEL-5 melanoma, in the assay on NCI-H23 lung, with SF-268 CNS, with HL-60(TB) leukemia, with HCT-15 colon and in the assay with UO-31 renal was more than 32.5 µM in each case. Moreover, the TGI was more than 32.5 µM in the assay with OVCAR-4 ovarian, more than 32.5 µM in the assay with KM12 colon and 7.41 µM in the assay with SK-MEL-2 melanoma.

With `CCN(CC)CCSc1nc2c([N+](=O)[O-])cccc2[nH]1`, the TGI in the assay with SK-MEL-5 melanoma, with NCI-H23 lung, with HL-60(TB) leukemia, in the assay on HCT-15 colon, with OVCAR-4 ovarian and in the assay with KM12 colon was more than 100 µM each time.

For the compound `CCCCCCCCCCCCCCCc1ccc(C(=O)C[n+]2ccccc2)cc1`, the GI50 was 1.44 µM with SK-MEL-5 melanoma; 0.502 µM in the assay with NCI-H23 lung; 2.88 µM with BT-549 breast; 0.531 µM in the assay with HL-60(TB) leukemia; 1.03 µM in the assay with HCT-15 colon; 0.523 µM in the assay on KM12 colon. In addition, the TGI worked out at 3.93 µM in the assay on SK-MEL-5 melanoma; 1.79 µM in the assay with NCI-H23 lung; 12.3 µM in the assay with BT-549 breast; 2.52 µM in the assay with HL-60(TB) leukemia; 2.56 µM with HCT-15 colon; 1.59 µM in the assay with KM12 colon.

On to `CNC1=C(C)C(=O)C2=C(C1=O)C(COC(N)=O)C1(OC)C3NC3CN21` (configuration not stated), for which the TGI is 0.268 µM in the assay on SK-MEL-5 melanoma; 12.9 µM in the assay on SF-268 CNS; more than 100 µM in the assay on HL-60(TB) leukemia; 3.52 µM in the assay on HCT-15 colon; 7.4 µM with UO-31 renal; 25.7 µM with OVCAR-4 ovarian. Further, the TGI in the assay with KM12 colon turned out to be 2.04 µM; with SK-MEL-2 melanoma, 4.27 µM.

With `N=C(N)c1ccc(-c2ccc(-c3ccccc3)o2)cc1`, the GI50 in the assay with SK-MEL-5 melanoma is 1.94 µM; with NCI-H23 lung, 3.37 µM; with SF-268 CNS, 1.96 µM; in the assay with BT-549 breast it was 13.1 µM; in the assay on HL-60(TB) leukemia, 1.93 µM; with HCT-15 colon, 1.64 µM. For the same compound, the GI50 is 1.79 µM with UO-31 renal, 1.96 µM in the assay with OVCAR-4 ovarian, 1.86 µM in the assay on KM12 colon and 2.14 µM in the assay with SK-MEL-2 melanoma. The TGI with SK-MEL-5 melanoma is 3.72 µM; in the assay with NCI-H23 lung, 14.8 µM; in the assay with SF-268 CNS, 4.28 µM; in the assay on BT-549 breast, 39.9 µM; with HL-60(TB) leukemia, 4.42 µM; with HCT-15 colon, 3.24 µM. The TGI in the assay on UO-31 renal was 3.53 µM; with OVCAR-4 ovarian, 4.9 µM; in the assay with KM12 colon, 3.58 µM; with SK-MEL-2 melanoma, 3.98 µM.

Turning to `CC(=O)Nc1ccc2c(c1)C(=Nc1ccc(C(=O)O)cc1)c1ccccc1-2`, the TGI in the assay on SK-MEL-5 melanoma, with NCI-H23 lung, in the assay on SF-268 CNS, with BT-549 breast, in the assay with HCT-15 colon and with UO-31 renal was more than 100 µM in each case. The TGI with OVCAR-4 ovarian and in the assay with KM12 colon was more than 100 µM throughout.

Consider `Nc1cccc2cc(S(=O)(=O)Nc3ccc(C(=O)O)cc3)ccc12`, for which the TGI in the assay on SK-MEL-5 melanoma, with NCI-H23 lung, in the assay on SF-268 CNS, in the assay on BT-549 breast, with HL-60(TB) leukemia and with HCT-15 colon was more than 100 µM throughout. Moreover, the TGI in the assay with UO-31 renal, in the assay on OVCAR-4 ovarian, in the assay on KM12 colon and with SK-MEL-2 melanoma was more than 100 µM each time.

For `CSc1nc(NC2OC(CO)C(O)C(O)C2O)c(N)c(=O)n1C` (configuration not stated), the TGI with SK-MEL-5 melanoma, in the assay with NCI-H23 lung, in the assay on SF-268 CNS, in the assay on HL-60(TB) leukemia, with HCT-15 colon and in the assay on UO-31 renal was more than 100 µM in each case. Also, the TGI in the assay with OVCAR-4 ovarian, in the assay on KM12 colon and in the assay with SK-MEL-2 melanoma was more than 100 µM throughout.

Consider `COc1ccc(C2C(Cl)C(=O)N2NC(=O)c2ccc(NC(C)=O)cc2)cc1OC` (configuration not stated), for which the TGI in the assay with SK-MEL-5 melanoma, in the assay with NCI-H23 lung, with SF-268 CNS, in the assay with HL-60(TB) leukemia, with UO-31 renal and in the assay with KM12 colon was more than 100 µM each time. Moreover, the TGI in the assay with SK-MEL-2 melanoma is more than 100 µM.

Consider `NC(=O)OCc1c(O)c2c(c(O)c1COC(N)=O)C(=O)C=CC2=O`, for which the TGI in the assay with SK-MEL-5 melanoma, in the assay on NCI-H23 lung, in the assay with SF-268 CNS, with HL-60(TB) leukemia, in the assay on HCT-15 colon and in the assay with UO-31 renal was more than 100 µM each time. The TGI with OVCAR-4 ovarian, in the assay with KM12 colon and in the assay with SK-MEL-2 melanoma was more than 100 µM each time.
